In PubChem BioAssay AID1259407 (Chemical Carcinogenesis Research Information System (CCRIS), 2018):
Activity calls are given as the source filed them. How the calls were made is not given here.

Tested on: CCRIS mutagenicity, Ames/micronucleus/aberration tests
Test: CCRIS mutagenicity studies
[1] = Test System: AMES SALMONELLA TYPHIMURIUM, Strain/Indicator: TA98, Metabolic Activation: NONE, Method: STANDARD PLATE
[2] = Test System: AMES SALMONELLA TYPHIMURIUM, Strain/Indicator: TA100, Metabolic Activation: NONE, Method: STANDARD PLATE
[3] = Test System: AMES SALMONELLA TYPHIMURIUM, Strain/Indicator: TA1535, Metabolic Activation: NONE, Method: STANDARD PLATE
[4] = Test System: AMES SALMONELLA TYPHIMURIUM, Strain/Indicator: TA1537, Metabolic Activation: NONE, Method: STANDARD PLATE

## CCC/C=C/C=O
Test System: AMES SALMONELLA TYPHIMURIUM, Strain/Indicator: TA97A, Metabolic Activation: NONE, Method: DESICCATOR
  mutagenic call: inactive; negative
Test System: AMES SALMONELLA TYPHIMURIUM, Strain/Indicator: TA97A, Metabolic Activation: S-9, Method: DESICCATOR
  mutagenic call: inactive; negative
Test System: AMES SALMONELLA TYPHIMURIUM, Strain/Indicator: TA98, Metabolic Activation: NONE, Method: DESICCATOR
  mutagenic call: inactive; negative
Test System: AMES SALMONELLA TYPHIMURIUM, Strain/Indicator: TA100, Metabolic Activation: NONE, Method: DESICCATOR
  mutagenic call: inactive; negative
Test System: AMES SALMONELLA TYPHIMURIUM, Strain/Indicator: TA100, Metabolic Activation: NONE, Method: PREINCUBATION
  mutagenic call: inactive; negative
Test System: AMES SALMONELLA TYPHIMURIUM, Strain/Indicator: TA100, Metabolic Activation: NONE, Method: PREINCUBATION (THREEFOLD CELL DENSITY)
  mutagenic call: active; positive
Test System: AMES SALMONELLA TYPHIMURIUM, Strain/Indicator: TA100, Metabolic Activation: RAT, LIVER, S-9, AROCLOR 1254, Method: PREINCUBATION
  mutagenic call: inactive; negative
Test System: AMES SALMONELLA TYPHIMURIUM, Strain/Indicator: TA100, Metabolic Activation: RAT, LIVER, S-9, AROCLOR 1254, Method: PREINCUBATION (THREEFOLD CELL DENSITY)
  mutagenic call: active; positive
Test System: AMES SALMONELLA TYPHIMURIUM, Strain/Indicator: TA100, Metabolic Activation: S-9, Method: DESICCATOR
  mutagenic call: inactive; negative
Test System: AMES SALMONELLA TYPHIMURIUM, Strain/Indicator: TA102, Metabolic Activation: S-9, Method: DESICCATOR
  mutagenic call: inactive; negative
Test System: AMES SALMONELLA TYPHIMURIUM, Strain/Indicator: TA104, Metabolic Activation: NONE, Method: DESICCATOR
  mutagenic call: inactive; negative
Test System: AMES SALMONELLA TYPHIMURIUM, Strain/Indicator: TA104, Metabolic Activation: NONE, Method: PREINCUBATION
  mutagenic call: active; positive
Test System: AMES SALMONELLA TYPHIMURIUM, Strain/Indicator: TA104, Metabolic Activation: S-9, Method: DESICCATOR
  mutagenic call: inactive; negative
Test System: CHINESE HAMSTER V-79, Strain/Indicator: V-79/6-THIOGUANINE, Metabolic Activation: NONE, Method: STANDARD PLATE
  mutagenic call: active; positive
Test System: CHINESE HAMSTER V-79, Strain/Indicator: V-79/OUABAIN, Metabolic Activation: NONE, Method: STANDARD PLATE
  mutagenic call: inactive; negative

## CCN(CCCl)CCCNc1c2ccccc2nc2c1ccc1cccnc12
[1]
  mutagenic call: active; positive
[2]
  mutagenic call: active; positive
[3]
  mutagenic call: inactive; negative
Test System: AMES SALMONELLA TYPHIMURIUM, Strain/Indicator: TA1536, Metabolic Activation: NONE, Method: STANDARD PLATE
  mutagenic call: active; positive
[4]
  mutagenic call: active; positive
Test System: AMES SALMONELLA TYPHIMURIUM, Strain/Indicator: TA1538, Metabolic Activation: NONE, Method: STANDARD PLATE
  mutagenic call: active; positive

## Nc1ccc(-c2ccc(N)c(O)c2)cc1O
[1]
  mutagenic call: inactive; negative
Test System: AMES SALMONELLA TYPHIMURIUM, Strain/Indicator: TA98, Metabolic Activation: RAT, LIVER, S-9, AROCLOR, Method: STANDARD PLATE
  mutagenic call: inactive; negative
[2]
  mutagenic call: active; positive (weak)
Test System: AMES SALMONELLA TYPHIMURIUM, Strain/Indicator: TA100, Metabolic Activation: RAT, LIVER, S-9, AROCLOR, Method: STANDARD PLATE
  mutagenic call: active; positive (weak)
[3]
  mutagenic call: inactive; negative
Test System: AMES SALMONELLA TYPHIMURIUM, Strain/Indicator: TA1535, Metabolic Activation: RAT, LIVER, S-9, AROCLOR, Method: STANDARD PLATE
  mutagenic call: inactive; negative
[4]
  mutagenic call: inactive; negative
Test System: AMES SALMONELLA TYPHIMURIUM, Strain/Indicator: TA1537, Metabolic Activation: RAT, LIVER, S-9, AROCLOR, Method: STANDARD PLATE
  mutagenic call: inactive; negative

## COc1ccnc(=O)[nH]1
[2]
  mutagenic call: active; positive

## CN1CCN(c2ccc3nc(CCCCCCc4ccc5nc(-c6ccc(N(CCCl)CCCl)cc6)[nH]c5c4)[nH]c3c2)CC1
[1]
  mutagenic call: inactive; negative
[2]
  mutagenic call: inactive; negative
Test System: AMES SALMONELLA TYPHIMURIUM, Strain/Indicator: TA102, Metabolic Activation: NONE, Method: STANDARD PLATE
  mutagenic call: inactive; negative

## CCCCOc1cc2c(c3ccc4ccccc4c13)CCC2=O
Test System: AMES SALMONELLA TYPHIMURIUM, Strain/Indicator: TA100, Metabolic Activation: RAT, LIVER, S-9, AROCLOR 1254, Method: STANDARD PLATE
  mutagenic call: inactive; negative

## COc1ccc2c(c1)c(CC(=O)OC(C)c1ccccc1)c(C)n2C(=O)c1ccc(Cl)cc1 (stereo not given)
End Point: IN VITRO MICRONUCLEUS, Test System: CHL/IU CELLS, Metabolic Activation: NONE
  mutagenic call: active; positive
